Assay: Brønsted acid catalysed 8-endo cationic carbocyclisation of biphenyl-embedded enynes (C-C bond between tertiary carbocation from protonated alkene and distal alkyne carbon); TfOH 10 mol%, vinyl cation trapped by H2O (1.1 equiv) or internal nucleophile
Details: the molecule shown is the open-chain precursor; 8-membered ring; 1,2-dichloroethane; 50.0 mM; 60.0 °C

**Q.** With `COc1cccc(CC#Cc2ccccc2-c2ccccc2C=C(C)C)c1` [1v -> 6v] as the compound, how does the ring closure, isolated yield read?
**A.** 29%

**Q.** For `CC(C)=Cc1ccccc1-c1ccccc1C#CCCO` [1u -> 6u], which ring closure, isolated yield is on record?
**A.** 31%

Same assay, conditions: the molecule shown is the open-chain precursor; 8-membered ring; 1,2-dichloroethane; 50.0 mM; 60.0 °C; 2.0 h

**Q.** Which ring closure, isolated yield does the source give for `CC#Cc1cc(OC)ccc1-c1ccccc1C=C(C)C` [1s -> 3s] here?
**A.** 70%

**Q.** With `CC#Cc1ccccc1-c1ccc(OC)cc1C=C(C)C` [1r -> 3r] as the compound, how does the ring closure, isolated yield read?
**A.** 82%

**Q.** For `CC#Cc1cc(Cl)ccc1-c1ccccc1C=C(C)C` [1q -> 3q], which ring closure, isolated yield is on record?
**A.** 95%

**Q.** For `CC#Cc1ccccc1-c1ccccc1C=C(C)C` [1b -> 3b], which ring closure, isolated yield is on record?
**A.** 99%

**Q.** For `CC#Cc1ccccc1-c1cc(Cl)ccc1C=C(C)C` [1p -> 3p], which ring closure, isolated yield is on record?
**A.** 99%

**Q.** With `CC#Cc1cc(OC)c(C)c(OC)c1-c1cc(Cl)ccc1C=C(C)C` [1t -> 3t] as the compound, how does the ring closure, isolated yield read?
**A.** 45%

Source: article PMC11059095
